Laboratory results reported in patent US9458128B2, “Catechol O-methyltransferase activity inhibiting compounds” (Orion Corporation, priority 2012, dated 2016).

Molecular target: T1, recombinant human soluble COMT (S-COMT) (Homo sapiens, UniProt P21964)
T1 sequence (P21964 1-221 isoform P21964-2): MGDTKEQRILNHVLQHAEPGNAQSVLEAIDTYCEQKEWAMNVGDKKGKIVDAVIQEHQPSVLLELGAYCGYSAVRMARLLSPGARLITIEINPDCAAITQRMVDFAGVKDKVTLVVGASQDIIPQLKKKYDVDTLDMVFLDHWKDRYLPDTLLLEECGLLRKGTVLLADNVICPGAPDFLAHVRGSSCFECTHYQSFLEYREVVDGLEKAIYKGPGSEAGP
Assay: COMT inhibiting activity in vitro, Assay 1 (fluorescence plate reader)
Format: biochemical
Details: Assay 1: 12 nM S-COMT, 60 min preincubation at 37° C., substrate esculetin, Morrison equation
Procedure: (§1) The inhibitory potency was determined by measuring recombinant human soluble COMT (S-COMT) activity at various compound concentrations. COMT activity measurements were performed according to the method published in Kurkela, M. et al. Analytical Biochemistry, 331 (2004) 198 with slight modifications according to Assay 1 or Assay 2 described below.
Recombinant human S-COMT (12 nM) was preincubated with the COMT inhibitor and 400 μM S-adenosyl-L-methionine in 100 mM Na2HPO4 buffer, pH 7.4, containing 5 mM MgCl2 for 60 min at 37° C. The reaction was started with the addition of the substrate esculetin for a final concentration of […] and the production of O-methylated esculetin was followed with the FlexStation fluorescence plate reader ([…], USA) using excitation at 355 nm and emission at 460 nm. The inhibitor dissociation constant, Ki, of the studied compounds was calculated using the Morrison equation, which takes the tight binding inhibition into account (Copeland, R. A. Evaluation of Enzyme Inhibitors in Drug Discovery. A Guide for Medicinal Chemists and Pharmacologists, John Wiley & Sons, Inc., Hoboken, N.J., 2005, pp. 185-187):
[formula] wherein v0 and vi are the reaction velocities in the absence and presence, respectively, of the inhibitor, E is the active enzyme concentration, and I is the inhibitor concentration. The data were analyzed with GraphPad Prism version 4.00 software (GraphPad Software, San Diego, Calif., USA). Assay 2

SMILES	Ki [nM]
N#Cc1cc(O)c(O)c(C#N)c1-c1cccs1 [Example 5, 4,5-Dihydroxy-2-(thiophen-2-yl)isophthalonitrile]	0.84
CC(C)S(=O)(=O)c1ccc(-c2c(C#N)cc(O)c(O)c2C#N)cc1 [Example 23, 3,4-Dihydroxy-4′-(isopropylsulfonyl)biphenyl-2,6-dicarbonitrile]	0.19
N#Cc1cc(O)c(O)c(C#N)c1-c1cccc(C(=O)O)c1 [Example 26, 2′,6′-Dicyano-3′,4′-dihydroxybiphenyl-3-carboxylic acid]	0.12
N#Cc1cc(O)c(O)c(C#N)c1-c1ccc(CCC(=O)O)cc1 [Example 32, 3-(2′,6′-Dicyano-3′,4′-dihydroxybiphenyl-4-yl)propanoic acid]	2
N#Cc1cc(O)c(O)c(C#N)c1-c1ccc(Cl)c(Cl)c1 [Example 38, 3′,4′-Dichloro-3,4-dihydroxybiphenyl-2,6-dicarbonitrile]	9.5
N#Cc1cc(O)c(O)c(C#N)c1Cc1ccccc1 [Example 45, 2-Benzyl-4,5-dihydroxyisophthalonitrile]	8.2
N#Cc1cc(O)c(O)c(C#N)c1C1=CCOCC1 [Example 74, 2-(3,6-Dihydro-2H-pyran-4-yl)-4,5-dihydroxyisophthalonitrile]	2
N#Cc1cc(O)c(O)c(C#N)c1/C=C/C(=O)O [Example 76, (E)-3-(2,6-Dicyano-3,4-dihydroxyphenyl)acrylic acid]	3.3
C=Cc1c(C#N)cc(O)c(O)c1C#N [Example 89, 4,5-Dihydroxy-2-vinylisophthalonitrile]	2
CCN(CC)C(=O)c1cccc(-c2c(C#N)cc(O)c(O)c2C#N)c1 [Example 100, 2′,6′-Dicyano-N,N-diethyl-3′,4′-dihydroxybiphenyl-3-carboxamide]	6.5
Cc1ccc(/C=C/c2c(C#N)cc(O)c(O)c2C#N)cc1 [Example 121, (E)-4,5-Dihydroxy-2-(4-methylstyryl)isophthalonitrile]	18
N#Cc1cc(O)c(O)c(C#N)c1-c1ccc2cc(O)ccc2c1 [Example 122, 4,5-Dihydroxy-2-(6-hydroxynaphthalen-2-yl)isophthalonitrile]	1.5
N#Cc1cc(O)c(O)c(C#N)c1CCCO [Example 187, 4,5-Dihydroxy-2-(3-hydroxypropyl)isophthalonitrile]	3.2
N#Cc1cc(O)c(O)c(C#N)c1N1CCOCC1 [Example 191, 4,5-Dihydroxy-2-morpholinoisophthalonitrile]	2.9

Molecular target: T1, recombinant human soluble COMT (S-COMT)
Assay: COMT inhibiting activity in vitro, Assay 2 (HPLC with fluorescence detection)
Format: biochemical
Details: Assay 2: 0.8 nM S-COMT, esculetin 0.5 μM, Morrison equation
Procedure: as §1
Recombinant human S-COMT (0.8 nM) was incubated with the COMT inhibitor and 200 μM S-adenosyl-L-methionine in 100 mM Na2HPO4 buffer, pH 7.4, containing 5 mM MgCl2 for 30 min at 37° C. The reaction was started with the addition of esculetin for a final concentration of 0.5 μM and the reaction mixture with total volume of 200 μl was incubated for 30 min at 37° C. The reaction was stopped with 20 μl of 4 M HClO4 and the precipitated protein was removed by Sirocco protein precipitation plate (centrifuged at 4° C. for 10 min at 3000 g). O-Methylated esculetin was detected by Waters HT Alliance HPLC setup with Waters 474 fluorescence detector (Ex […], Em 460 nm, Gain 100). The analytes were separated isocratically using 0.1 M Na2HPO4, 20 mM citric acid, 0.15 mM EDTA, pH 3.2, in 40% methanol as mobile phase and Waters Spherisorb ODS2 (3 μm, 4.6 mm×100 mm) column. O-Methylated esculetin concentrations were calculated based on the standard curve and the Ki values were calculated using the Morrison equation as in Assay 1.

SMILES	Ki [nM]
N#Cc1cc(O)c(O)c(C#N)c1Cc1ccc(C(=O)O)cc1 [Example 118, 4-(2,6-Dicyano-3,4-dihydroxybenzyl)benzoic acid]	0.33
COC(=O)CCc1ccc(Sc2c(C#N)cc(O)c(O)c2C#N)cc1 [Example 144, Methyl 3-(4-(2,6-dicyano-3,4-dihydroxyphenylthio)phenyl)propanoate]	0.7
Cc1ccc(-c2c(C#N)cc(O)c(O)c2C#N)cc1 [Example 152, 3,4-Dihydroxy-4′-methylbiphenyl-2,6-dicarbonitrile]	1.6
N#Cc1cc(O)c(O)c(C#N)c1Cc1ccc(CCC(=O)O)cc1 [Example 153, 3-(4-(2,6-Dicyano-3,4-dihydroxybenzyl)phenyl)propanoic acid]	0.4
N#Cc1cc(O)c(O)c(C#N)c1Cc1ccc(C(F)(F)F)cc1 [Example 154, 4,5-Dihydroxy-2-(4-(trifluoromethyl)benzyl)isophthalonitrile]	1.3
Cc1ccc([S+]([O-])c2c(C#N)cc(O)c(O)c2C#N)cc1 (stereo not shown) [Example 156, 4,5-Dihydroxy-2-(p-tolylsulfinyl)isophthalonitrile]	0.26
CCc1ccc(Sc2c(C#N)cc(O)c(O)c2C#N)cc1 [Example 158, 2-(4-Ethylphenylthio)-4,5-dihydroxyisophthalonitrile]	0.53
N#Cc1cc(O)c(O)c(C#N)c1Sc1ccc(Cl)cc1 [Example 159, 2-(4-Chlorophenylthio)-4,5-dihydroxyisophthalonitrile]	0.94
Cc1ccccc1Sc1c(C#N)cc(O)c(O)c1C#N [Example 160, 4,5-Dihydroxy-2-(o-tolylthio)isophthalonitrile]	0.7
COC(=O)c1ccc(Sc2c(C#N)cc(O)c(O)c2C#N)cc1 [Example 161, Methyl 4-(2,6-dicyano-3,4-dihydroxyphenylthio)benzoate]	0.3
N#Cc1cc(O)c(O)c(C#N)c1Sc1ccc(CC(=O)O)cc1 [Example 164, 2-(4-(2,6-Dicyano-3,4-dihydroxyphenylthio)phenyl)acetic acid]	0.2
COc1ccc(Sc2c(C#N)cc(O)c(O)c2C#N)cc1 [Example 167, 4,5-Dihydroxy-2-(4-methoxyphenylthio)isophthalonitrile]	0.3
N#Cc1cc(O)c(O)c(C#N)c1Sc1ccncc1 [Example 171, 4,5-Dihydroxy-2-(pyridin-4-ylthio)isophthalonitrile]	0.9
N#Cc1cc(O)c(O)c(C#N)c1Sc1cccc(C(=O)O)c1 [Example 172, 3-(2,6-Dicyano-3,4-dihydroxyphenylthio)benzoic acid]	0.2
N#Cc1cc(O)c(O)c(C#N)c1Sc1ccc2ccccc2c1 [Example 174, 4,5-Dihydroxy-2-(naphthalen-2-ylthio)isophthalonitrile]	0.5
CC(=O)c1ccc(Oc2c(C#N)cc(O)c(O)c2C#N)cc1 [Example 177, 2-(4-Acetylphenoxy)-4,5-dihydroxyisophthalonitrile]	0.8
Cc1ccc(Oc2c(C#N)cc(O)c(O)c2C#N)c(C)c1 [Example 180, 2-(2,4-Dimethylphenoxy)-4,5-dihydroxyisophthalonitrile]	0.5
Cc1ccc(S(=O)(=O)c2c(C#N)cc(O)c(O)c2C#N)cc1 [Example 209, 4,5-Dihydroxy-2-tosylisophthalonitrile]	0.1

System: not listed separately
Assay: Determination of levodopa concentration in rat plasma
Format: in vivo
Details: entacapone = 1.00, adult male Wistar rats, COMT inhibitor dosed orally with levodopa+carbidopa
Procedure: Levodopa concentration in rat plasma was determined substantially as described in e.g. Kim, T. K. et al. European Journal of Pharmaceutical Sciences, 38 (2009) 525. The studies were performed in adult male Wistar rats. The COMT inhibitor was dosed orally over a range of doses and several sampling time points were chosen between 0 min and 300 min after drug administration (levodopa+carbidopa and COMT inhibitor). Blood samples were collected by cardiac puncture under CO2 anaesthesia into pre-cooled K2EDTA tubes and kept on ice until the separation of plasma by centrifugation. For levodopa analysis, 75 μl of separated plasma was pipetted without delay into pre-cooled polypropylene tubes containing a conserving agent. All the samples were stored at −80° C. nominal until analyzed. Plasma levels of levodopa were determined by LC-MS/MS (or HPLC). Standard pharmacokinetic methods were used to evaluate the concentration—time data by non-compartmental analysis modeling. The analyses were performed using WinNonlin® Professional v. 5.0.1.

SMILES	Relative levodopa concentration
N#Cc1cc(O)c(O)c(C#N)c1Br [Example 1, 2-Bromo-4,5-dihydroxyisophthalonitrile]	1.65
N#Cc1cc(O)c(O)c(C#N)c1-c1ccco1 [Example 6, 2-(Furan-2-yl)-4,5-dihydroxyisophthalonitrile]	1.64
CC(C)S(=O)(=O)c1ccc(-c2c(C#N)cc(O)c(O)c2C#N)cc1 [Example 23, 3,4-Dihydroxy-4′-(isopropylsulfonyl)biphenyl-2,6-dicarbonitrile]	1.34
CC(C)(C)/C=C/c1c(C#N)cc(O)c(O)c1C#N [Example 28, (E)-2-(3,3-Dimethylbut-1-enyl)-4,5-dihydroxyisophthalonitrile]	2.69
N#Cc1cc(O)c(O)c(C#N)c1Cc1ccc(F)cc1 [Example 55, 2-(4-Fluorobenzyl)-4,5-dihydroxyisophthalonitrile]	1.31
N#Cc1cc(O)c(O)c(C#N)c1Cc1ccccc1F [Example 60, 2-(2-Fluorobenzyl)-4,5-dihydroxyisophthalonitrile]	1.13
CC(C)=Cc1c(C#N)cc(O)c(O)c1C#N [Example 87, 4,5-Dihydroxy-2-(2-methylprop-1-enyl)isophthalonitrile]	1.51
C=CCc1c(C#N)cc(O)c(O)c1C#N [Example 92, 2-Allyl-4,5-dihydroxyisophthalonitrile]	1.42
